Test results: US7122524B2, “Tripeptides and tripeptide derivatives for the treatment of postlesional disease of the nervous system” (Neurotell AG, priority 2002, dated 2006)
Converted amounts (≈) assume the structure as drawn. Structures can show the parent of a compound that is named as a salt. Where two headings read alike, the source gives them in different places. One block for each compound: values may come before it. Residues, ends and D or L forms follow the SMILES beside them.

How the values were obtained:
[1] = literature value; cited from earlier work
cholinergic nerve ends = assay: Sprouting assay (dendrite length after septum lesion); format: in vivo, rat; conditions: rats, septum of hippocampus destroyed; 20 mg/per kg bodyweight per day over at least 15 days
Procedure: The sprouting of nerve cells is determined by the length of the dendrites. According to the present invention, the influence of the substances used according to the present invention on the sprouting is studied in an in vivo assay.
The septum of the hippocampus of 10 rats was destroyed (see Hagg et al; Exp. Neurol., 101, 303–312). 21 days after the impairment of the hippocampus was unambiguous, as confirmed by a behavioural test, the rats were divided into two groups of 5 rats each. 20 mg/per kg bodyweight per day of the substance used according to the present invention (GFPNH2) was administered to the test group of 5 rats over at least 15 days.
After administration, the animals were killed, and the cholinergic nerve ends were observed by a CAT (choline-acetyl-transferase) immunofluorescence assay under a fluorescence microscope. The length of the dendrites was measured thereby.

[2] = Metabolic stability in rat hepatocytes; format: in vitro ADME; conditions: male, Wistar, 10^6 cells/ml, analysed during 24 h, read-out: T½ (converted)
From the text: Hepatocytes from adult male Wistar rats (IFFA Credo, L'Arbresle, France) were isolated by an in situ liver perfusion using collagenase (purchased from Sigma (St. Louis, Mo., U.S.A), according to a procedure described by Seglen (Preparation of isolated rat liver cell, Methods Cell Biol. 13, 29–83, 1976) and modified by Williams et al. (Rat hepatocyte primary culture. III. Improved dissociation and attachment techniques and the enhancement of survival by culture medium, in vitro 13: 809–817, 1977). After estimation of cell viability by the peripheral refractoriness of intact cells in phase contrast microscopy and the trypan blue test, freshly isolated hepatocytes were washed in basal William's medium E (WME) supplemented with 10% (v/v) fetal calf serum, 70 μM cortisol, 2 mM L-glutamine, 10 mM HEPES buffer, and 4 mM NaOH. They were then plated at a density of 0,5×10^6 cells per 50 mm plastic cell culture dishes in the medium described previously for cell attachment for 6 hours at 37° C. Subsequently, hepatocytes were washed three times in serum- and cholesterol-free medium (SF-WME) containing 4 g/l bovine albumin fraction V (Sigma) as transporter for 7.8 μM of a mixture of free fatty acids (Cheesebeuf M and Padieu P, expression of major liver metabolic function in long-term serum-free rat liver epithelial cell lines. In vitro 20: 780–795, 1984), and then were transferred to the SF-WME supplemented with the various tripeptides of formula (I). For each group of experiments, hepatocytes from three or four livers were used.
Significances are calculated using Student's t-test. Values are expressed as mean±SD.
• Method: (Hepatocytes in suspension) • Plasma sample: Precipitation with trichloracetic acid. • Centrifugation and aliquot of supernatant to HPLC. • […] column: Nucleosil C18 (250×4,6 mm). • Buffer TEAP 0,1%/CH3CN, 1 ml/min • Readings at 210 nm. […]
Each substance of each concentration will be analysed 10 times during 24 h (1 h, 2 h, 4 h, 6 h, 8 h, 10 h, 12 h, 16 h, 20 h, 24 h).

[3] = freshly isolated rat hepatocytes (in suspension)

Compound: thyreoliberin [TRH, reference compound]
predicted absorption after peroral application (PAMPA classification) (classification by flux rate): weakly absorbed

Compound: O=c1ccc2ccccc2o1 [Coumarin]
flux rate published by Kansy et al. [1]: 66%

Compound: NCC(=O)N[C@@H](Cc1ccccc1)C(=O)N1CCC[C@H]1C(N)=O [HCl-Gly-Phe-ProNH2, glycyl-L-phenylalanyl-L-prolineamide] (H-Gly-Phe-Pro-NH2)
predicted absorption after peroral application (PAMPA classification) (PAMPA): weakly absorbed
increase of the dendrite length (cholinergic nerve ends): 8 to 10 μm

Compound: CC[C@H](C)[C@H](NC(=O)[C@H]([C@@H](C)CC)N(CC)CC)C(=O)N1CCC[C@H]1C(N)=O [N,N-Diethyl-Ile-Ile-ProNH2, N,N-diethyl-isoleucyl-isoleucyl-prolineamide]
predicted absorption after peroral application (PAMPA classification) (PAMPA): medium to highly absorbed
solubility (physchem): 1000 µg/mL (≈ 2520 µM)
half-life [2, 3]: 3.4 h

predicted absorption after peroral application (PAMPA classification) (PAMPA): medium to highly absorbed
Compound: CC[C@H](C)[C@H](NC(C)C)C(=O)N[C@H](C(=O)N1CCC[C@H]1C(N)=O)[C@@H](C)CC [N-Isopropyl-Ile-Ile-ProNH2]

Compound: CCNC(=O)[C@@H]1CCCN1C(=O)[C@H](Cc1ccccc1)NC(=O)[C@H]([C@@H](C)CC)N(CC)CC [N,N-Diethyl-Ile-Phe-ProNHEt, N,N-diethyl-isoleucyl-phenylalanyl-L-proline ethylamide]
predicted absorption after peroral application (PAMPA classification) (PAMPA): medium to highly absorbed
solubility (physchem): 1000 µg/mL (≈ 2180 µM)
half-life [2, 3]: 4.5 h

Compound: C[C@]12CCC(=O)C=C1CC[C@@H]1[C@@H]2[C@@H](O)C[C@@]2(C)[C@H]1CC[C@]2(O)C(=O)CO [Hydrocortisone]
flux rate published by Kansy et al. [1]: 52%

Compound: CC[C@H](C)[C@H](NC(=O)CN(CC)CC)C(=O)N1CCC[C@H]1C(N)=O [N,N-Diethyl-Gly-Ile-ProNH2]
predicted absorption after peroral application (PAMPA classification) (PAMPA): medium to highly absorbed
half-life ([2]; freshly isolated rat hepatocytes): 2.8 h
